Measured values from ChEMBL document CHEMBL1201862, “PubChem BioAssay data set” (2004).
The source made the active and inactive calls.

How the values were obtained:
HEK293 = experiment: inhibitors of LMP1-driven NF-kB reporter, dose response, cell-based, HEK293, luciferase, cherry-pick (AID 588343); format: functional; conditions: Homo sapiens
cells = format: functional, cell-based
[1] = biological target: T1, Nuclear receptor subfamily 0 group B member 1 (Homo sapiens, UniProt P51843); format: functional, cell-based;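 note: HEK293T cells transfected with SF-1 and DAX-1 plus StAR promoter luciferase reporter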
T1 sequence (P51843 whole entry): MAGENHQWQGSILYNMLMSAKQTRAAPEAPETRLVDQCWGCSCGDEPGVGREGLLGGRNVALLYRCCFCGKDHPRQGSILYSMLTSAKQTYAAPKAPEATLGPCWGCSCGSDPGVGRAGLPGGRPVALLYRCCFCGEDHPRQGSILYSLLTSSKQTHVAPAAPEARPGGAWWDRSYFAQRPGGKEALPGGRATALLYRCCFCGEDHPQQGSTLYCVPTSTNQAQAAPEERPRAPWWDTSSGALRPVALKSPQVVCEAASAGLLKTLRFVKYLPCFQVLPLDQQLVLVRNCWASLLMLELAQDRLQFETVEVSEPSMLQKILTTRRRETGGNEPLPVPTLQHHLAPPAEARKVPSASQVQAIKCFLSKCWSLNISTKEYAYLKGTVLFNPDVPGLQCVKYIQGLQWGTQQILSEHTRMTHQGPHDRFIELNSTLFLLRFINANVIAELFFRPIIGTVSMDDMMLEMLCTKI

Genome polyprotein = Genome polyprotein (dengue virus type 2, UniProt P29990); experiment: Dengue-2 NS5 methyltransferase inhibitors, primary screen, biochemical, confirmation dose response (AID 588689); format: functional
[2] = biological target: T2, Corticotropin-releasing factor receptor 2/Corticotropin-releasing factor-binding protein (Homo sapiens, UniProt P24387+Q13324); experiment: Dose Response confirmation of uHTS hits for small molecule antagonists of the CRF-binding protein and CRF-R2 receptor complex.; format: functional; conditions: read-out: IC50_Mean
T2 sequence (Q13324 whole entry): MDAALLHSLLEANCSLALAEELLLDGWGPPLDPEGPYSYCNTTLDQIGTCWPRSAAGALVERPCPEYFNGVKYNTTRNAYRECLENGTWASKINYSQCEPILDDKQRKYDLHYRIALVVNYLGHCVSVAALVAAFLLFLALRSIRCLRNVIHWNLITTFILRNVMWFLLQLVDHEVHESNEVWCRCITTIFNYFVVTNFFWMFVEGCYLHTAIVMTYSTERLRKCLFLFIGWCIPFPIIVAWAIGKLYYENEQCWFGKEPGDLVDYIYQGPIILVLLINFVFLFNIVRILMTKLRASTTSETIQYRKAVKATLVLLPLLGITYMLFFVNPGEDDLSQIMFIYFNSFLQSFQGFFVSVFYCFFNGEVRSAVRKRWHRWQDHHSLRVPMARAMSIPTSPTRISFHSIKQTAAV
T2 sequence (P24387 whole entry): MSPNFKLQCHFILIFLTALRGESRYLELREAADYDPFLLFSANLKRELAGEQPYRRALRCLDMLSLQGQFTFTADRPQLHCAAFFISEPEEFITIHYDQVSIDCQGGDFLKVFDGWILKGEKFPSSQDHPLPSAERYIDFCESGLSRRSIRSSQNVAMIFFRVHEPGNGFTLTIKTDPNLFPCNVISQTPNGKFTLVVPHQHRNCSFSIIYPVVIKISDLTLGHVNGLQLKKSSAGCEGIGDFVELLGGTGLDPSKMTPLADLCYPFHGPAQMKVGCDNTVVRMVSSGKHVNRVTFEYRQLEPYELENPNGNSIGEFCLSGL

[3] = biological target: T2, Corticotropin-releasing factor receptor 2/Corticotropin-releasing factor-binding protein; experiment: activators of CRF receptor 2 with binding protein – uHTS hits, confirmation (AID 602473); format: functional; conditions: read-out: EC50_Mean
[4] = CRF-BP/CRF-R2 complex antagonists, dose response, cell-based, uHTS hits, 384-well (AID 651639); format: functional, Homo sapiens; conditions: read-out: IC50_Mean
[5] = biological target: T3, Long-chain-fatty-acid--AMP ligase FadD28 (Mycobacterium tuberculosis, UniProt P9WQ59); experiment: Fluorescence polarization aasay to screen for inhibitors that compete for the binding of FadD28 to a bisubstrate Measured in Biochemical System Using Plate Reader - 2147-01_Inhibitor_Dose_CherryPick_Activity.; format: functional, Mycobacterium tuberculosis H37Rv
T3 sequence (P9WQ59 whole entry): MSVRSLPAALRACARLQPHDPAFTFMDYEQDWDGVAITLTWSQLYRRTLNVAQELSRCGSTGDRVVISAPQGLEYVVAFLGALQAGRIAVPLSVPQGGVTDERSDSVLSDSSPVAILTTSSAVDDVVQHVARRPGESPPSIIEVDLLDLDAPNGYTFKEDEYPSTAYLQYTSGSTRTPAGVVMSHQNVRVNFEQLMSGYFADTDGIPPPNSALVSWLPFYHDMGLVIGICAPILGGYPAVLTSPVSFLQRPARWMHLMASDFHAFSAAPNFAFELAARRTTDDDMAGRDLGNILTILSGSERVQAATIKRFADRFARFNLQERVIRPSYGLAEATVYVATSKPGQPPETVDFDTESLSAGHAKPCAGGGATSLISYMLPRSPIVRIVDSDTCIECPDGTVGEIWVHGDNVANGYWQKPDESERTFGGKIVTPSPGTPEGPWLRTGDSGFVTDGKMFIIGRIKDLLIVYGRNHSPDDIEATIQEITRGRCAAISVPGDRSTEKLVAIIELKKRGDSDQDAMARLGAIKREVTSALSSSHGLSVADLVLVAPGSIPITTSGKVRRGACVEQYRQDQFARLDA

[6] = miR-122 activators in hepatoma reporter cells, dose response, cell-based, Huh7 psiCHECK-miR122, Renilla luciferase, cherry-picked (AID 651956); format: functional;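 note: huh7 hepatoma cells stably carrying a psiCHECK-2 miR-122 sensor plasmid; renilla luciferase signal reporting endogenous miR-122 activity after 48 h compound exposure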
[7] = biological target: T4, Sentrin-specific protease 1 (Homo sapiens, UniProt Q9P0U3); experiment: potency of human SENP1 inhibitors, dose response, biochemical, kinetic FRET (AID 651697); format: functional; conditions: read-out: IC50_Mean
T4 sequence (Q9P0U3 whole entry): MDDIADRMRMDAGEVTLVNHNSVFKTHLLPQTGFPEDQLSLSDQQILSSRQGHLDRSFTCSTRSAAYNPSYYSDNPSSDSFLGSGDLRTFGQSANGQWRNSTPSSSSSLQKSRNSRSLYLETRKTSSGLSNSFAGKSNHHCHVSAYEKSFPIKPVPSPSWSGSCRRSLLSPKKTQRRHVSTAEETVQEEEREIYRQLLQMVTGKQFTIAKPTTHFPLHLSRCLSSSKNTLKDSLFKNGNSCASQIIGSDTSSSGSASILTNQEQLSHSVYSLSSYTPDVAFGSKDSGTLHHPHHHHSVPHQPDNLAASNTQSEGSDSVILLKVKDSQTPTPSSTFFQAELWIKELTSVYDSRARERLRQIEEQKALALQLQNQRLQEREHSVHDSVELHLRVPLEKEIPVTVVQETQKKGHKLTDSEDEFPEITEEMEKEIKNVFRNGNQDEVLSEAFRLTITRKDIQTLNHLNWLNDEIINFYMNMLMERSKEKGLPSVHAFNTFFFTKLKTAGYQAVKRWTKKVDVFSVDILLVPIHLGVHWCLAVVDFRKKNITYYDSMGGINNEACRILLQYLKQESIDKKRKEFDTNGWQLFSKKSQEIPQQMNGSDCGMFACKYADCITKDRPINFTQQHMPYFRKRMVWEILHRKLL

[8] = biological target: T4, Sentrin-specific protease 1; experiment: Dose response confirmation of small molecule inhibitors of the catalytic domain of the SUMO protease, SENP1 in a FRET assay.; format: functional; conditions: read-out: IC50_Mean
[9] = inhibitors of HIV Env-driven cell fusion, dose response, cherry-pick (AID 652057); format: functional, cell-based
[10] = CEM21 lymphoblast cell cytotoxicity, dose response, cytotoxicity control for viral fusion inhibitor project, CellTiter-Glo luminescence, cherry-picked (AID 652042); format: functional, cell-based;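 note: potency for signal decrease meaning cytotoxicity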
[11] = ZM109 Env clade C HIV-1 fusion inhibitors, dose response, HeLa effector, CEM target cells, luciferase, cherry-pick (AID 652058); format: functional, cell-based
[12] = off-target signal loss in HeLa-CEM21 co-culture – HeLa F-luc CTL cells, cherry-picked, counter-screen for HIV-1 Env fusion inhibitor project, dose response (AID 652040); format: functional, cell-based;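 note: potency for signal decrease marking cytotoxic or nonspecific inhibition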
[13] = inhibitors of clade B AD8 Env fusion, dose response, cell-based, cherry-pick (AID 652062); format: functional;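 note: luciferase signal from cell-cell fusion driven by HIV-1 clade B AD8 Env; potency is for inhibitors of fusion seen as a drop in luminescence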

Chain of Genome polyprotein (P29990 2492-3391 limits assumed): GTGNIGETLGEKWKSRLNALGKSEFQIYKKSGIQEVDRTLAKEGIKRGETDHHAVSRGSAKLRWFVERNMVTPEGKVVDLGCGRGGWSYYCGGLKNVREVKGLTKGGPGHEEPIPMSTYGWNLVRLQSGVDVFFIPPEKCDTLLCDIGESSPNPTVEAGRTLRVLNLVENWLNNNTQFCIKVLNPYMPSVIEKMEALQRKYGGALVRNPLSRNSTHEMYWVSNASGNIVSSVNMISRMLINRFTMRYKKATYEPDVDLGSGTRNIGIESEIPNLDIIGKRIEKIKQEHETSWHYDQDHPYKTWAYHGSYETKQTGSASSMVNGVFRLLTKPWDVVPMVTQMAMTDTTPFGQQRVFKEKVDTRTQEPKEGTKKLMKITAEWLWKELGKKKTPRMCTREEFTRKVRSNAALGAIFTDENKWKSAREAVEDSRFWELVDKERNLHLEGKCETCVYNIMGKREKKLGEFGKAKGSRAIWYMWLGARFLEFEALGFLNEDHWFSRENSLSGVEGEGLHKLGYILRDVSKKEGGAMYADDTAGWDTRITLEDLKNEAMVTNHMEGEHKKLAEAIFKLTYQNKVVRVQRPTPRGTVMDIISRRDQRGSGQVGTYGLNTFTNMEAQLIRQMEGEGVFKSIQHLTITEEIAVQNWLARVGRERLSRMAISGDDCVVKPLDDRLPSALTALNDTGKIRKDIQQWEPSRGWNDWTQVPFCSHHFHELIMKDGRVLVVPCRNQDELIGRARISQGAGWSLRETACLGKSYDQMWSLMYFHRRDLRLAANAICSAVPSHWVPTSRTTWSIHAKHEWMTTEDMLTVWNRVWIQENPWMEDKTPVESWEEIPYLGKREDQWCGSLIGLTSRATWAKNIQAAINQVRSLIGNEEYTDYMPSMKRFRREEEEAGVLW

Cc1ccc(NC(=O)C(=O)Nc2ccccn2)cc1
AC50 (HEK293): 2.59 µM (active) | IC50 (cells): > 67.6 µM (inactive) | IC50 [1]: > 67.6 µM (inactive)

C=CCOc1ccc(/C=C2\SC(=S)N(NS(=O)(=O)c3ccccc3)C2=O)cc1
IC50 (Genome polyprotein): 30.4 µM (active) | IC50 [2]: 3.68 µM (active) | EC50 [3]: > 53 µM (inactive) | IC50 [4]: 6.69 µM (active) | AC50 [5]: > 100 µM (inactive)

CCCCN(CCCC)C(=O)CN(C)S(=O)(=O)c1ccc2c(c1)n(C)c(=O)c(=O)n2C
AC50 [6]: 1.4 µM (active)

COc1ccccc1NC(=O)CONC(=N)CC(=O)NC1CCCCC1
IC50 [7]: 14.1 µM (active) | IC50 [8]: 12.5 µM (active)

OCC1OC(n2ccc3c(NO)ncnc32)C(O)C1O (stereo unspecified)
AC50 [9]: 2.35 µM (active) | AC50 [10]: 0.641 µM (active) | AC50 [11]: 2.44 µM (active) | AC50 [12]: 2.65 µM (active) | AC50 [13]: 4.53 µM (active)
